From patent US20210113492A1, “METHOD FOR INHIBITING PROLIFERATION AND METASTASIS OF CANCER CELLS BY USING NAPHTHOQUINONE DERIVATIVE” (National Tsing Hua University, priority 2019, published 2021)
In brackets after ≈: the same amount, converted by molar mass.

Key:
Format in all cases: cell-based
[1] = tested on: human cervical cancer cells (Hela); experiment: Boyden chamber invasion assay, Hela; details: 2.5, 5 and 10 μM, 24 h, dose dependency (FIG. 2E)
Procedure: Cells were harvested by […] and resuspended in a serum-free medium with 0.1% BSA. Then, […] of cell suspension (2×10^5 cells) was seeded into the upper insert of SPLInsert with Polyethylene terephthalate (PET) membrane (pore size: 8.0 μm) (SPL Lifesciences, Korea) pre-coated with matrigel (BD Biosciences, San Jose, Calif.). The bottom well of 24-well plate of SPLInsert was filled with cell medium containing 10% FBS with different concentrations of isoplumbagin (5, 7.5 and 10 μM, Experimental group of oral squamous cell carcinoma cells (OC3-IV2); 2.5, 5 and 10 μM, Experimental groups of human primary glioblastoma cells (U87), human non-small cell lung carcinoma cells (H1299), human prostate cancer cells (PC3) and human cervical cancer cells (Hela)) or without isoplumbagin (DMSO added). […] Number of cells was counted using Image J. Relative invasion ability was calculated as cell number per area.
FIGS. 2A-2E show the inhibitory effect of different doses of isoplumbagin on invasion for oral squamous cell carcinoma cells (OC3-IV2), human primary glioblastoma cells (U87), human non-small cell lung carcinoma cells (H1299), prostate cancer cells (PC3) and cervical cancer cells (Hela) assessed with the Boyden chamber assays. *Compared with solvent control (DMSO). […]

[2] = tested on: oral squamous cell carcinoma cells (OC3-IV2); experiment: MTT survival assay, OC3-IV2; details: Homo sapiens, 48 h, read-out: IC50, survival rate
Procedure: According to the present invention, human oral cancer cell line OC3-IV2 cells (Lin S C et al, J Oral Pathol Med. 2004 February; 33(2):79-86 and Lu Y C et al, Cancer Prey Res (Phila). 2012 April; 5(4):665-74) were cultured in a 1:1 ratio of Dulbecco's modified Eagle medium (DMEM; Invitrogen) and keratinocyte serum-free medium (KSFM; Invitrogen) containing 10% fetal bovine serum (FBS; Invitrogen, Carlsbad, Calif., USA), 1% L-glutamine (L-Gln, Invitrogen) and 1% antibiotic-antimycotic (AA, Invitrogen). Cells were maintained in a humidified atmosphere containing 5% CO2 at 37° C., and the culture medium was replaced every 2 days.
Isoplumbagin (AKOS006277326, acquired from AKos GmbH, Steinen, Germany) was dissolved in dimethyl sulfoxide (DMSO) and added to the medium, so that the final concentration of DMSO was less than 0.1%. The survival rate of isoplumbagin on OC3-IV2, U87, H1299 and PC3 cell lines was determined using the 3-(4,5-dimethylthiazol-2-yl)-2,5-diphenyltetrazolium bromide (MTT; Sigma-Aldrich) assays. 3×10^3 cells/well were seeded in 96-well plates. After incubation for 24 h, cells were treated with isoplumbagin at various concentrations (0, 1, 5, 10, 25, 50 and 100 μM) and incubated for a further 48 h. At the end of treatment, 10 μL 5 mg/mL MTT was added to each well. […] The absorbance of dissolved formazan was measured at 550 nm wavelengths by a spectrophotometer. […]

[3] = tested on: human non-small cell lung carcinoma cells (H1299); experiment: Mitochondrial morphology and distribution by immunofluorescence staining, H1299; details: 1 μM or 2.5 μM, 24 hours, anti-TOM20 staining
Procedure: (§1) The effects of isoplumbagin on mitochondrial morphology and distribution of OC3-IV2, U87, H1299 and PC3 cell lines were measured by immunofluorescence staining After OC3-IV2, U87, H1299, and PC3 cells were treated with DMSO, 1 μM, or 2.5 μM isoplumbagin for 24 hours, cells were fixed by 4% (v/v) paraformaldehyde and permeabilized by 0.1% (v/v) Triton X-100. Cells were incubated in blocking buffer containing 1% bovine serum albumin. After blocking, cells were incubated overnight with indicated primary antibodies against TOM20 (a mitochondria marker, sc-11415, Santa Cruz), and then incubated with Alexa Fluor 488-conjugated secondary antibodies (A11001, Invitrogen). Nucleus was stained with DAPI, actin was stained with rhodamine phalloidin (A12379, Invitrogen) and cells were mounted using Prolong Gold reagent (P36930, Invitrogen). 63 images were taken by LSM800 confocal microscopes (Zeiss).
(§2) FIGS. 5A-5D show the effect of isoplumbagin on mitochondrial morphogenesis and distribution of oral squamous cell carcinoma cells (OC3-IV2), human primary glioblastoma cells (U87), human non-small cell lung carcinoma cells (H1299) and human prostate cancer cells (PC3). Cells treated with either solvent control (DMSO) or isoplumbagin were determined by immunofluorescence staining using anti-TOM20 (mitochondria, green) antibody, rhodamine phalloidin (actin, red) and DAPI (nucleus, blue). […]

[4] = tested on: human prostate cancer cells (PC3); experiment: Mitochondrial morphology and distribution by immunofluorescence staining, PC3; details: 1 μM or 2.5 μM, 24 hours, anti-TOM20 staining
Procedure: as §1, §2

## CC1=CC(=O)c2cccc(O)c2C1=O [isoplumbagin, 5-hydroxy-3-methyl-1,4-naphthoquinone]
[1]
  cancer cells migrating through the membrane (invasion): decrease significantly
[2]
  IC50: 1.02 µg/mL (≈ 5.42 µM)
[3]
  mitochondrial morphogenesis and distribution: can alter the mitochondrial morphogenesis and distribution
[4]
  mitochondrial morphogenesis and distribution: can alter the mitochondrial morphogenesis and distribution
